The subject of this test is lashes and adjacent hairs of patients. Nature of the test: lash and hair appearance in glaucoma patients treated in only one eye. To be noted: unilateral treatment. The format is in vivo, human. From the text: In the course of treating patients having glaucoma, treatment may only be appropriate in one eye. […] The lash appearance on the lids of the treated eyes would have appeared quite attractive if it represented a bilateral phenomenon. As a result of its asymmetric nature, the long lashes on one side could be construed as disturbing from a cosmetic standpoint. A systemic examination was preformed as a result of the asymmetric phenomenon. It soon became apparent that this altered appearance was not an isolated finding. […] Definite differences could be identified to varying degrees in the lashes and adjacent hairs of all patients who were taking the drug on a unilateral basis for longer than 6 months.
The changes in the lashes were apparent on gross inspection in several patients once attention was focused on the issue. In those with light colored hair and lashes, the differences were only seen easily with the aid of the high magnification and lighting capabilities of the slit lamp biomicroscope. In the course of glaucoma follow-up examination, attention is generally immediately focused on the eye itself. As a result of the high power magnification needed only one eye is seen at a time and the eye is seen at a high enough power that the lashes are not in focus. […]

In the case of `CCNC(=O)CCC/C=C\C[C@@H]1[C@@H](/C=C/[C@@H](O)CCc2ccccc2)[C@H](O)C[C@@H]1O` [bimatoprost], the “lash growth, treated eye versus non-treated eye” value is “longer, thicker, and fuller in the treated eye than in the non-treated eye”.

The values above are taken from patent US20090286787A1, “SUBSTITUTED GAMMA LACTAMS AS THERAPEUTIC AGENTS” (ALLERGAN, INC., priority 2008, published 2009).
